Three substances from patent US8178506B2, “Oligomeric compounds and compositions for use in modulation of small non-coding RNAs” (Regulus Therapeutics Inc., priority 2003, dated 2012) can be followed below.

Data set [1] has as its system IL-6 mRNA. The data set can be described thus: IL-6 mRNA in LPS-activated primary murine macrophages. The class given is cell-based, mouse. Particulars: average of 3 treatments. Summed up:
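Thioglycollate-elicited peritoneal macrophages from female C57Bl/6 mice, transfected with miRNA-targeting oligomeric compounds via FuGENE 6 (1 μL per 100 nM compound) for ~24–28 h at 37 °C, optionally primed 4 h with 100 ng/mL IFN-gamma, then stimulated 24 h with 100 ng/mL LPS. IL-6 mRNA quantified by real-time PCR.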

Data set [2] relates to mir-21 pri-miRNA. The data set can be described thus: mir-21 pri-miRNA expression in HeLa cells (real-time RT-PCR). Particulars: HeLa cells, 100 nM, real-time RT-PCR. The class given is cell-based, human. For orientation: Quantitative PCR measures a nucleic acid by following its amplification.

In the oligonucleotide strings, read from the 5' end, every base follows the letter of its sugar. An asterisk marks phosphorothioate; unmarked linkages are phosphodiester. Other units and linkages are bracketed, terminal groups are in braces. A string of capitals states the bases alone. e = 2'-O-(2-methoxyethyl) (MOE); [5mC] = 5-methylcytosine

Regarding “327941 (antisense eA*eA*e[5mC]*e[5mC]*e[5mC]*eA*e[5mC]*e[5mC]*eG*eA*e[5mC]*eA*eG*e[5mC]*eA*eA*eT*eG*eA*eA*eT*eG*eT*eT) [compound 327941]”, the “IL-6 mRNA expression, % UTC” value is recorded as 181 % UTC in data set [1] (75 nM, +IFN); 293 % UTC in data set [1] (75 nM, −IFN); 197 % UTC in data set [1] (150 nM, +IFN); 325 % UTC in data set [1] (150 nM, −IFN); 197 % UTC in data set [1] (300 nM, +IFN); 271 % UTC in data set [1] (300 nM, −IFN). Besides, the “IL-6 mRNA expression, % UTC” value is given as 301 % UTC in data set [1] (600 nM, +IFN) and 501 % UTC in data set [1] (600 nM, −IFN).

As for “327921 (antisense e[5mC]*eT*eT*e[5mC]*e[5mC]*eA*eG*eT*e[5mC]*eG*eG*eG*eG*eA*eT*eG*eT*eT*eT*eA*e[5mC]*eA) [compound 327921]”, the “IL-6 mRNA expression, % UTC” value is recorded as 122 % UTC in data set [1] (75 nM, +IFN); 223 % UTC in data set [1] (75 nM, −IFN); 144 % UTC in data set [1] (150 nM, +IFN); 294 % UTC in data set [1] (150 nM, −IFN); 287 % UTC in data set [1] (300 nM, +IFN); 522 % UTC in data set [1] (300 nM, −IFN). The “IL-6 mRNA expression, % UTC” value in data set [1] (600 nM, +IFN) turned out to be 313 % UTC; in data set [1] (600 nM, −IFN), 632 % UTC.

Consider “327917 (antisense eT*e[5mC]*eA*eA*e[5mC]*eA*eT*e[5mC]*eA*eG*eT*e[5mC]*eT*eG*eA*eT*eA*eA*eG*e[5mC]*eT*eA) [compound 327917]”, for which, in data set [2], the “mir-21 pri-miRNA expression % UTC” value turned out to be 249 % UTC.
